Where two headings read alike, the source gives them in different places.
How the values were obtained:
[1] = system: phosphorylation of Akt at Serine 473 in U87 MG cells; experiment: cells; settings: Homo sapiens, U-87 MG, 2 h, read-out: U87Cell IC50, pAkt (Ser 473), U87 MG cells, two hours with compound
PI3Kα [2] = molecular target: T1, PI3Kα (Homo sapiens (Human), UniProt P42336); experiment: biochemical; settings: PI3Kα AlphaScreen ® Ki
PI3Kα [3] = molecular target: T1, PI3Kα; settings: read-out: PI3Kα AlphaScreen ® Ki
[4] = system: phosphorylation of Akt at Serine 473 in U87 MG cells; settings: read-out: U87Cell IC50

T1 sequence (P42336 whole entry): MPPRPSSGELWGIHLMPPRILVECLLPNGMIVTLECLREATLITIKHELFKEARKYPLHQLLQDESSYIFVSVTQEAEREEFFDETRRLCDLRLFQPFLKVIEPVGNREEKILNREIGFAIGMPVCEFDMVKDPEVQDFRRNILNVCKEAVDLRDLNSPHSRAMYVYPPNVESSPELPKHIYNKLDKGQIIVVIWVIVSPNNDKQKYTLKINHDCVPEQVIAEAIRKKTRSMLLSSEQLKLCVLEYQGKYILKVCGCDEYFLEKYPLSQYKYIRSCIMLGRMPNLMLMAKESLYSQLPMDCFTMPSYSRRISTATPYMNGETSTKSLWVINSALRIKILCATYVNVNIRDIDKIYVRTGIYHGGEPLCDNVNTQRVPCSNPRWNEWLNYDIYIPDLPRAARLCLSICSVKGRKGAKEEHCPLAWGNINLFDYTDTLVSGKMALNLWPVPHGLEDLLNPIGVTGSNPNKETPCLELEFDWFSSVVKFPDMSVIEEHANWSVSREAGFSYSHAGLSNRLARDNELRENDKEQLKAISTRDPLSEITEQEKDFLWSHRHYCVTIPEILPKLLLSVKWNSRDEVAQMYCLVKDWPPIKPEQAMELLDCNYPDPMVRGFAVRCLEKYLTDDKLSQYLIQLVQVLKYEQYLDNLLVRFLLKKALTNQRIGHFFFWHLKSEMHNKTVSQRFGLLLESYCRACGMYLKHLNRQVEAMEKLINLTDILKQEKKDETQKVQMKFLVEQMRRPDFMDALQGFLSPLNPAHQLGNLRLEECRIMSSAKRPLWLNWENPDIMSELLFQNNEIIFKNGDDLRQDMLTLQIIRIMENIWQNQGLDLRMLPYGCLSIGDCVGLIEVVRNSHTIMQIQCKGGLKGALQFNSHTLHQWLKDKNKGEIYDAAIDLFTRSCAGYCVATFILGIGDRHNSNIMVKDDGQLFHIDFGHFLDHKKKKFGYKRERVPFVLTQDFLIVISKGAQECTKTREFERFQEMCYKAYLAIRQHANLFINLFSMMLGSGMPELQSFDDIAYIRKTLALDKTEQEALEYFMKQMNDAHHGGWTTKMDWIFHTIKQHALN
T1 sequence (P27986 whole entry partner): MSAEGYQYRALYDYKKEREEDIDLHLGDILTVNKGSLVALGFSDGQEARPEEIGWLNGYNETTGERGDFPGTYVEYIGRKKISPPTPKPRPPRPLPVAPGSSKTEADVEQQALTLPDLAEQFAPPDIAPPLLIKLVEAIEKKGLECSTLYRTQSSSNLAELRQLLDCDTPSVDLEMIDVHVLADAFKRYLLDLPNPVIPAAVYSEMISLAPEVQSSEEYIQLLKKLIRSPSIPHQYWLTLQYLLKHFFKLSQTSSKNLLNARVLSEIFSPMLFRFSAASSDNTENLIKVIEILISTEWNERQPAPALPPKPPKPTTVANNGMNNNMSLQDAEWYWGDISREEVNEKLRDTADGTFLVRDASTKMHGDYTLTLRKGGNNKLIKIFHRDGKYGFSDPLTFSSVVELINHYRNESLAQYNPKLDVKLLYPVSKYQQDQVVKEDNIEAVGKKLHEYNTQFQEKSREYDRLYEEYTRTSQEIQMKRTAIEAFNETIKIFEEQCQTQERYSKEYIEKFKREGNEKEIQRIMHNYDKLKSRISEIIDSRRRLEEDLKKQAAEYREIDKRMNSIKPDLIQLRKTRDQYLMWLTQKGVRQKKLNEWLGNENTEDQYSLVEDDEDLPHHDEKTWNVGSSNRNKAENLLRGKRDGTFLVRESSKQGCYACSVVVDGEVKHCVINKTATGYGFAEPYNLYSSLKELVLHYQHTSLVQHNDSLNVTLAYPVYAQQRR

| IC50 [1] [µM] | Ki (PI3Kα [2]) [µM] | IC50 ([4]; pAkt (Ser 473), U87 MG cells, two hours with compound) [µM] | Molecule | Ki (PI3Kα [3]) [µM] | IC50 [4] [µM] |
| --- | --- | --- | --- | --- | --- |
| 0.09 | 0.045 |  | COc1ccc(Nc2ncc(CN3CCN(C(=O)N(C)C4CC4)CC3)cc2-c2nc(C)nc(N)n2)cn1 [Example 359, 4-((5-(4-Amino-6-Methyl-1,3,5-Triazin-2-yl)-6-(6-Methoxypyridin-3-Ylamino)Pyridin-3-yl)Methyl)-N-Cyclopropyl-N-Methylpiperazine-1-Carboxamide] |  |  |
| 0.147 | 0.012 |  | COc1ccc(Nc2ncc([C@@H](O)C(C)(C)C)cc2-c2nc(C)nc3c2ncn3C2CCCCO2)cn1 (stereo partly drawn) [Example 132, (1S)-1-(6-(6-Methoxypyridin-3-Ylamino)-5-(2-Methyl-9-(Tetrahydro-2H-Pyran-2-yl)-9H-Purin-6-yl)Pyridin-3-yl)-2,2-Dimethylpropan-1-ol] |  |  |
|  |  | 0.089 | COc1ccc(Nc2ncc([C@@H](O)C(F)(F)F)cc2-c2nc(C)nc(N)n2)cn1.COc1ccc(Nc2ncc([C@H](O)C(F)(F)F)cc2-c2nc(C)nc(N)n2)cn1 (racemic) [Example 269, (R,S)-1-(5-(4-Amino-6-Methyl-1,3,5-Triazin-2-yl)-6-(6-Methoxypyridin-3-Ylamino)Pyridin-3-yl)-2,2,2-Trifluoroethanol] | 0.033 |  |
|  |  |  | 4-((5-(4-Amino-6-Methyl-1,3,5-Triazin-2-yl)-6-(5-Fluoro-6-Methoxypyridin-3-Ylaamino)Pyridin-3-yl)Methyl)-N-Methyl-N-(2,2,2-Trifluoroethyl)Piperazine-1-Carboxamide [Example 358] | 0.024 | 0.121 |
|  | 0.009 |  | COc1ncc(Nc2ncc(C(C)CO)cc2-c2nc(C)nc(N)n2)cc1F (single isomer, unassigned) [312 First eluting, 2-(5-(4-Amino-6-methyl-1,3,5-triazin-2-yl)-6-(5-fluoro-6-methoxypyridin-3-ylamino)pyridin-3-yl)propan-1-ol] |  |  |
| 0.278 | 0.031 |  | COc1ccc(Nc2ncc([C@H](O)C(C)(C)C)cc2-c2nc(C)nc3c2ncn3C2CCCCO2)cn1 (stereo partly drawn) [Example 133, (1R)-1-(6-(6-Methoxypyridin-3-Ylamino)-5-(2-Methyl-9-(Tetrahydro-2H-Pyran-2-yl)-9H-Purin-6-yl)Pyridin-3-yl)-2,2-Dimethylpropan-1-ol] |  |  |

Source: patent US8772480B2, “Inhibitors of PI3 kinase and/or mTOR” (priority 2009, dated 2014)
